According to US20120129838A1, “Composition for Preventing and Treating Alopecia Disorder Containing Morgalanthamine Compounds as an Active Ingredient” (The Industry & Academic Cooperation in Chungnam National …, priority 2009, published 2012):
Structures can show the parent of a compound that is named as a salt.

How the values were obtained:
[1] = tested on: rat vibrissa immortalized dermal papilla cell line; experiment: Proliferation of dermal papilla cells (MTT assay); type: cell-based; details: incubated for 4 days, absorbance at 540 nm
Procedure: A rat vibrissa immortalized dermal papilla cell line obtained by immortalizing dermal papilla cells isolated from rat whiskers (Filsell W, et al., Transfection of rat dermal papilla cells with a gene encoding a temperature-sensitive polyomavirus large T antigen generates cell lines a differentiated phenotype., J. Cell Sci, 107, pp. 1761-1772, 1994) was incubated at 37° C. in a DMEM (Hyclone Inc, USA) medium containing […] (Gibco Inc, NY, USA) and 10% heat-inactivated fetal bovine serum (FBS, Gibco Inc, NY, USA) using a 5% CO2 pyrostat, and subcultured every 3 days.
The cultured dermal papilla cells (1.0×10^4 cells/ml) were put into each well of a 96-well plate, and incubated for 24 hours. Then, a used culture solution was changed with a serum-free DMEM medium, and cultured again for 24 hours. Thereafter, the cultured solution was treated with 0.01 and 0.1 μM concentrations of the norgalanthamine compound of Experimental Example 1, and a 1 μM concentration of a positive control, minoxidil sulfate (M.S., Sigma, Mo., USA), respectively. The resulting mixture was incubated for 4 days, 50 μl of MTT (Sigma, Mo., USA) was added thereto, and the mixture was reacted for 4 hours. A supernatant was removed, and a pellet was dissolved in 200 μl of DMSO, and then measured for absorbance at 540 nm using a microplate reader (Amersham Pharmacia Biotech, NY, USA). An average absorbance value of each sample group was calculated, and a level of the hair proliferation was examined by comparing the average absorbance value with an absorbance value of the control.

[2] = tested on: rat vibrissa follicles; experiment: Growth of rat vibrissa follicles in organ culture; details: time point of 21 days, isolated Wistar rat vibrissa follicles
Procedure: In order to measure an effect of the norgalanthamine compound prepared in Experimental Example 1 on hair growth, the following experiment was performed using a method described in the publication (Philpott M P, et al., Cyclical changes in rat vibrissa follicles maintained in vitro. J Invest Dermatol. 115, pp. 1152-1155, 2000),
A 3-week-old male Wistar rat (Japan SLC, Hamamatsu, Japan) was purchased from Central Lab. Animal Inc. (Korea), anesthetized with ethyl ether, and killed by cervical vertebral dislocation. The left and right mystacial pads of the rat were extracted and put into an E/P buffer ((EBSS, Earle's balanced salts solution, Sigma Mo., USA)+(PBS, phosphate-buffered saline, Sigma Mo., USA)) supplemented with 100 units/ml penicillin and 100 μg/ml streptomycin (Gibco Inc, NY, USA). Vibrissa follicles were carefully isolated under a steroscopic dissecting microscope. Until the hair follicles were completely isolated, the hair follicles were put into a Petri dish containing an E/P buffer, and incubated at 37° C. for 1 hour in a 5% CO2 pyrostat. 500 μl of William E medium (Gibco Inc, NY, USA) containing 2 mM. L-glutamine (Gibco Inc, NY, USA), 10 μg/ml insulin (Sigma Mo., USA), 50 nM hydrocortisone (Sigma Mo., USA) and 100 units/ml penicillin-100 μg/ml streptomycin was put into each well of a 24-well plate, and one hair follicle was added to each well, and incubated at […] in a 5% CO2 pyrostat. 10 to 12 hair follicles were used in each experimental group, and a medium was changed with a fresh medium every 3 days during the incubation. […]
Photographs of shapes of vibrissa follicles were taken using a microscope (Olympus, Japan). Lengths of hair follicles were measured at time points of 0, 7, 14 and 21 days using an image analyzer (DP controller; Olympus, Japan). An average variation in lengths of the hair follicles was calculated, and a growth level was measured by comparing the average variation with an average length of the control.

## Nc1cc(N2CCCCC2)nc(N)[n+]1OS(=O)(=O)[O-] [minoxidil sulfate, reference compound]
[1]; 1 μM, positive control
  proliferation of dermal papilla cells compared to the control (100%): 114.9±4.5%
[2]; 1 uM, positive control
  growth of hair fiber compared to that of the control (100%): 135.03±38.8%

## COc1ccc2c3c1OC1C[C@@H](O)C=C[C@@]31CCNC2 (stereo partly drawn) [norgalanthamine]
[1]; 0.01 μM
  proliferation of dermal papilla cells compared to the control (100%): 114.0±4.3%
[1]; 0.1 μM
  proliferation of dermal papilla cells compared to the control (100%): 106.2±5.6%
[2]; 0.01 uM
  growth of hair fiber compared to that of the control (100%): 128.7±13.8%
[2]; 0.1 uM
  growth of hair fiber compared to that of the control (100%): 139.2±10.3%
